Measured values from patent US8778882B2, “Agent for strengthening calcium containing tissue and use thereof” (Hayashibara Co., Ltd., priority 2002, dated 2014).

Test system: mouse pre-osteoblastic cell MC3T3-E1
Assay: Calcium deposition amount by Calcium C Test Wako
Type: cell-based
Text: Other flavonoid compounds than kaempferol or hesperetin were investigated where they have the same effect or not. Flavone (commercialized by Kanto Kagaku, Tokyo, Japan), apigenin (commercialized by Funakoshi, Co., Ltd., Tokyo, Japan), flavonol (commercialized by Tokyo Kasei Kogyo, Co., Ltd., Tokyo, Japan), quercetin (commercialized by Kanto Kagaku, Tokyo, Japan), kaempferol (commercialized by Funakoshi, Co., Ltd., Tokyo, Japan), rutin (commercialized by Kanto Kagaku, Tokyo, Japan), flavanone (commercialized by Kanto Kagaku, Tokyo, Japan), naringenin (commercialized by Ardrich Corporation), hesperetin (commercialized by Funakoshi, Co., Ltd., Tokyo, Japan), hesperidin (commercialized by Kanto Kagaku, Tokyo, Japan), chalcone (commercialized by Merk Corporation), fuloretin (commercialized by Sigma Corporation), catechin (commercialized by Sigma Corporation), ipriflavone (commercialized by Daito Corporation, Toyama, Japan), taxifolin (commercialized by Funakoshi, Co., Ltd., Tokyo, Japan), sulfuretin (commercialized by Funakoshi, Co., Ltd.; Tokyo, Japan), or cyanidin (commercialized by Funakoshi, Co., Ltd., Tokyo, Japan) was selected as test samples. Alkaline phosphatase activity was measured by the method of Experiment 1. Calcium deposition was measured by usual method using “Calcium C Test Wako” (commercialized by Wako Pure Chemical Industries, Osaka, Japan), briefly, cultured cells were washed with 1 ml of Dulbecco phosphate buffer saline three times after removing the medium. To the resultant was added 0.5 ml of 2N hydrochloric acid to resolve deposited calcium. To 5 μl of the resultant solution were added 0.5 ml of 0.88M monoethanolamine buffer (pH11) and 0.05 ml of 0.63 mM o-cresolphthalein complexone solution (binding to calcium ion to form chelate complex) containing 69 mM 8-quinolinol and mixed. Calcium amount per one hole of the plate was calculated by measuring absorbance 570 nm of the resultants and standardizing with a standard calcium solution. The judgement of alkaline phosphatase activity or calcium deposition amount of each sample was to calculate the relative activity or the relative calcium deposition amount to the negative control (only medium containing 0.2% (v/v) ethanol) and to compare each other.
The enhancement of calcium deposition between kaempferol and ipripfavone were compared. Test samples and their adding manner were same as Experiment 4. Calcium deposition amount was measured by usual method using “Calcium C Test Wako” (commercialized by Wako Pure Chemical Industries, Osaka, Japan); briefly, cultured cells were washed with 1 ml of Dulbecco phosphate buffer saline three times after removing the medium. To the resultant was added 0.5 ml of 2N hydrochloric acid to resolve deposited calcium. To 5 μl of the resolving solution were added 0.5 ml of 0.88M monoethanolamine buffer (pH11) and 0.05 ml of 0.63 mM o-cresolphthalein complexone solution (binding to calcium ion to form chelate complex) containing 69 mM 8-quinolinol and mixed, Calcium amount per one hole of the plate was calculated by measuring absorbance 570 nm of the resultants and standardizing with a standard calcium solution.
Kaempferol or hesperetin in combination with ipriflavone, or a kind of isoflavones, was investigated whether to enhance calcium deposition or not. Methods for preparing samples and culturing the cells were the same method described in Experiment 1 except culturing the cells for five days, Method for measuring calcium was the same method described in Experiment 3 and 5. Final ethanol concentration of the medium containing each sample was adjusted as same concentration.

`COc1ccc([C@@H]2CC(=O)c3c(O)cc(O)cc3O2)cc1O` [Hesperetin] was tested, and the “enhancing calcium deposition in combination with ipriflavone versus single use (FIGS. 3 and 4)” value (5, 10 or 20 μM each, five days culture) was “a synergy effect was confirmed” and the “Relative Calcium Deposition Amount (%)” value (flavonoid comparison, Calcium C Test Wako, relative to 0.2% (v/v) ethanol negative control) was 289%.
